Data published in paper doi:10.1101/2025.07.30.667614, “Steric control of signaling bias in the immunometabolic receptor GPR84” (bioRxiv, 2025).
Where two headings read alike, the source gives them in different places.

What was measured:
[1] = biological target: T1, GPR84 L336A (GPR84-Gi2α fusion protein) (Homo sapiens, UniProt Q9NQS5, L336A); test: [35S]GTPγS binding assay; assay type: biochemical
T1 construct: FLAG (N); Gαi2-Cys352Ile (fusion partner) (C); expressed in transfected cells
Method: (§1) Membranes were generated from Flp-In™ T-REx™ 293 cells following 100 ng/ml doxycycline treatment to induce receptor expression. Cells were washed with ice-cold phosphate-buffered saline (PBS), removed from dishes by scraping and centrifuged at 1,800 x g for 5 min at 4 °C. Pellets were resuspended in TE buffer (10mM Tris-HCl, 0.1 mM EDTA; pH 7.4) containing a protease inhibitor mixture and homogenized with a 5 ml hand-held homogenizer. Samples were centrifuged at 450 x g for 5 min at 4 °C and the supernatant was further centrifuged at 90,000 x g for 45 min at 4 °C. The resulting pellet was resuspended in TE buffer and protein content was assessed using a BCA protein assay kit.
(§2) Prepared membrane protein (3 μg per well) was incubated in assay buffer (20 mM HEPES, 5 mM MgCl2, 160 mM NaCl, 0.05 % fatty-acid-free bovine serum albumin; pH 7.4) containing the indicated ligand concentrations. The reaction was initiated by addition of [^35S]GTPγS (100 nCi per reaction) with 1 μM GDP, and incubated at 30 °C for 60 min. The reaction was terminated by rapid vacuum filtration through GF/C glassfibre filter-bottom 96-well microplates using a UniFilter FilterMate Harvester (PerkinElmer). Unbound radioligand was removed from filters by three washes with ice-cold PBS. Ultima Gold™ XR was added to dried filters, and [^35S]GTPγS binding quantified by liquid scintillation spectroscopy.

[2] = biological target: T2, GPR84 N104A (GPR84-Gi2α fusion protein) (Homo sapiens, UniProt Q9NQS5, N104A); test: [35S]GTPγS binding assay; assay type: biochemical; conditions: for fold reduction in potency compared to wild type: Asn104Ala; for Emax: read-out: Emax ± SEM
T2 construct: FLAG (N); Gαi2-Cys352Ile (fusion partner) (C); expressed in transfected cells
Method: as §1, §2

GPR84 N362S = biological target: T3, GPR84 N362S (Homo sapiens, UniProt Q9NQS5, N362S); test: [35S]GTPγS binding assay; assay type: biochemical; conditions: for Emax: read-out: Emax ± SEM
T3 construct: FLAG (N); Gαi2-Cys352Ile (fusion partner) (C); expressed in transfected cells
Method: as §1, §2

[3] = biological target: T4, GPR84 S169A (GPR84-Gi2α fusion protein) (Homo sapiens, UniProt Q9NQS5, S169A); test: [35S]GTPγS binding assay; assay type: biochemical; conditions: for Emax: read-out: Emax ± SEM; for fold reduced potency compared to wild type: Ser169Ala
T4 construct: FLAG (N); Gαi2-Cys352Ile (fusion partner) (C); expressed in transfected cells
Method: as §1, §2

[4] = biological target: T5, GPR84 T167A (GPR84-Gi2α fusion protein) (Homo sapiens, UniProt Q9NQS5, T167A); test: [35S]GTPγS binding assay; assay type: biochemical; conditions: for Emax: read-out: Emax ± SEM; for fold reduction in potency compared to wild type: Thr167Ala
T5 construct: FLAG (N); Gαi2-Cys352Ile (fusion partner) (C); expressed in transfected cells
Method: as §1, §2

[5] = biological target: T6, GPR84 W360A (GPR84-Gi2α fusion protein) (Homo sapiens, UniProt Q9NQS5, W360A); test: [35S]GTPγS binding assay; assay type: biochemical; conditions: for fold reduced potency compared to wild type: Trp360Ala; for Emax: read-out: Emax ± SEM
T6 construct: FLAG (N); Gαi2-Cys352Ile (fusion partner) (C); expressed in transfected cells
Method: as §1, §2

GPR84 Y332A = biological target: T7, GPR84 Y332A (Homo sapiens, UniProt Q9NQS5, Y332A); test: [35S]GTPγS binding assay; assay type: biochemical; conditions: for Emax: read-out: Emax ± SEM
T7 construct: FLAG (N); Gαi2-Cys352Ile (fusion partner) (C); expressed in transfected cells
Method: as §1, §2

[6] = biological target: T8, GPR84 Y69A (GPR84-Gi2α fusion protein) (Homo sapiens, UniProt Q9NQS5, Y69A); test: [35S]GTPγS binding assay; assay type: biochemical; conditions: for Emax: read-out: Emax ± SEM
T8 construct: FLAG (N); Gαi2-Cys352Ile (fusion partner) (C); expressed in transfected cells
Method: as §1, §2

[7] = biological target: T9, GPR84 Y81A (GPR84-Gi2α fusion protein) (Homo sapiens, UniProt Q9NQS5, Y81A); test: [35S]GTPγS binding assay; assay type: biochemical; conditions: for fold reduced potency compared to wild type: Tyr81Ala; for Emax: read-out: Emax ± SEM
T9 construct: FLAG (N); Gαi2-Cys352Ile (fusion partner) (C); expressed in transfected cells
Method: as §1, §2

[8] = biological target: GPR84-WT (GPR84-Gi2α fusion protein) (Homo sapiens, UniProt Q9NQS5); test: [35S]GTPγS binding assay; assay type: biochemical; conditions: for Emax: read-out: Emax ± SEM
Method: as §1, §2

GPR84 F187A = biological target: T10, GPR84 F187A (Homo sapiens, UniProt Q9NQS5, F187A); test: BRET β-arrestin-1 recruitment assay, HEK293T cells; assay type: cell-based; conditions: for EC50: F187A, read-out: β-arrestin-1 pEC50 ± SEM (converted)
T10 construct: FLAG (N); eYFP (C); expressed in transfected cells; host or cells: HEK293T, transient
Method: (§3) As a control, cells were transfected with 100:1 ratio of empty plasmid and the appropriate arrestin isoform fused to nano-luciferase. After 24 h, cells were seeded at 50,000 cells per well in poly-D-lysine-coated white 96-well plates and incubated at 37°C overnight. After 24 h, cells were washed twice with Hank’s balanced salt solution (HBSS), pH 7.4, and 10 μl/well of the nano-luciferase substrate coelenterazine-h (Nanolight Technologies) was added to a final concentration of 5 μM. Cells were incubated in the dark for 10 min at 37°C, after which 10 μl/well of the agonist compound was added, and the cells were incubated for another 5 minutes. 15 min after coelenterazine-h addition, reading of emission signals were performed on a PHERAstar FS plate reader (BMG Labtech) at 475 and 535 nm, representing nano-luciferase and eYFP emission signals, respectively. The net bioluminescence resonance energy transfer (BRET) ratio (mBRET) was calculated as follows: mBRET=(BRET^sample−BRET^control)*1000whereBRET=Emission^535nm/Emission^475nm

GPR84 L336A = biological target: T11, GPR84 L336A (Homo sapiens, UniProt Q9NQS5, L336A); test: BRET β-arrestin-1 recruitment assay, HEK293T cells; assay type: cell-based; conditions: for EC50: L336A, read-out: β-arrestin-1 pEC50 ± SEM (converted)
T11 construct: FLAG (N); eYFP (C); expressed in transfected cells; host or cells: HEK293T, transient
Method: as §3

GPR84 S331A = biological target: T12, GPR84 S331A (Homo sapiens, UniProt Q9NQS5, S331A); test: BRET β-arrestin-1 recruitment assay, HEK293T cells; assay type: cell-based; conditions: for Emax: HEK-293T
T12 construct: FLAG (N); eYFP (C); expressed in transfected cells; host or cells: HEK293T, transient
Method: as §3

GPR84-WT = biological target: T13, GPR84-WT (Homo sapiens, UniProt Q9NQS5); test: BRET β-arrestin-1 recruitment assay, HEK293T cells; assay type: cell-based; conditions: for Emax: HEK-293T
T13 construct: FLAG (N); eYFP (C); expressed in transfected cells; host or cells: HEK293T, transient
Method: as §3

[9] = L336A, read-out: pEC50 ± SEM (converted)
[10] = Extended Data Table 4, read-out: β-arrestin-1 pEC50 ± SEM (converted)
[11] = β-arrestin-1 recruitment, Extended Data Table 6

T5 sequence (Q9NQS5 whole entry T167A, the tested form may be a part): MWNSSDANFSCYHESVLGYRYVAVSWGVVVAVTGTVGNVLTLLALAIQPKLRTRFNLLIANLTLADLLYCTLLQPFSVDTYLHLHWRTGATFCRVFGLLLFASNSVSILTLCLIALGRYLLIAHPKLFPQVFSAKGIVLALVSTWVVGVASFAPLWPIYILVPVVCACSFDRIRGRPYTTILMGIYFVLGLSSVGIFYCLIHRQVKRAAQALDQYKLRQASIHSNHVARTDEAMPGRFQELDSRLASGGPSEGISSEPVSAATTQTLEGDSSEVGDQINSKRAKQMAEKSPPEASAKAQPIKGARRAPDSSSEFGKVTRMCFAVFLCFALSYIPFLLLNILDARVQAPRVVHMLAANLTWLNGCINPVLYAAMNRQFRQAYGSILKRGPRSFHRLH
T12 sequence (Q9NQS5 whole entry S331A): as the sequence (Q9NQS5 whole entry T167A, the tested form may be a part) above, with A167T, S331A counted along it
T9 sequence (Q9NQS5 whole entry Y81A, the tested form may be a part): as the sequence (Q9NQS5 whole entry T167A, the tested form may be a part) above, with Y81A, A167T counted along it
Sequence of GPR84-WT (GPR84-Gi2α fusion protein) (Q9NQS5 whole entry, the tested form may be a part): as the sequence (Q9NQS5 whole entry T167A, the tested form may be a part) above, with A167T counted along it
Sequence of GPR84-WT (GPR84-Gi2α fusion protein) (P04899 with tags, fused parts or gaps C352I partner): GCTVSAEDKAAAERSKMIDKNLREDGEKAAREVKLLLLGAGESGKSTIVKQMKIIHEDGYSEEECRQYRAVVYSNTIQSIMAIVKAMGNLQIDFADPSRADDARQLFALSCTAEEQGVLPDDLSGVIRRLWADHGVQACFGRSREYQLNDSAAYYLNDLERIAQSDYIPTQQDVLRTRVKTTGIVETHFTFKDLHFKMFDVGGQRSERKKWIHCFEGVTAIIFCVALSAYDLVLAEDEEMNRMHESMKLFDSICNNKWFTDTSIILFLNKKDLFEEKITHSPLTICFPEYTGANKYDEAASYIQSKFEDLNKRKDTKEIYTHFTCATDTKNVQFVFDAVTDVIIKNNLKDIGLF
T13 sequence (Q9NQS5 whole entry): as the sequence (Q9NQS5 whole entry T167A, the tested form may be a part) above, with A167T counted along it
T1 sequence (Q9NQS5 whole entry L336A, the tested form may be a part): as the sequence (Q9NQS5 whole entry T167A, the tested form may be a part) above, with A167T, L336A counted along it
T11 sequence (Q9NQS5 whole entry L336A): as the sequence (Q9NQS5 whole entry T167A, the tested form may be a part) above, with A167T, L336A counted along it
T8 sequence (Q9NQS5 whole entry Y69A, the tested form may be a part): as the sequence (Q9NQS5 whole entry T167A, the tested form may be a part) above, with Y69A, A167T counted along it
T2 sequence (Q9NQS5 whole entry N104A, the tested form may be a part): as the sequence (Q9NQS5 whole entry T167A, the tested form may be a part) above, with N104A, A167T counted along it
T7 sequence (Q9NQS5 whole entry Y332A, the tested form may be a part): as the sequence (Q9NQS5 whole entry T167A, the tested form may be a part) above, with A167T, Y332A counted along it
T4 sequence (Q9NQS5 whole entry S169A, the tested form may be a part): as the sequence (Q9NQS5 whole entry T167A, the tested form may be a part) above, with A167T, S169A counted along it
T10 sequence (Q9NQS5 whole entry F187A): as the sequence (Q9NQS5 whole entry T167A, the tested form may be a part) above, with A167T, F187A counted along it
T3 sequence (Q9NQS5 whole entry N362S, the tested form may be a part): as the sequence (Q9NQS5 whole entry T167A, the tested form may be a part) above, with A167T, N362S counted along it
T6 sequence (Q9NQS5 whole entry W360A, the tested form may be a part): as the sequence (Q9NQS5 whole entry T167A, the tested form may be a part) above, with A167T, W360A counted along it

Structure (SMILES) | EC50 [1, 9] | fold reduction in potency compared to wild type ([2]; [35S]GTPγS) | EC50 ([2]; [35S]GTPγS, N104A) | EC50 (GPR84 N362S; [35S]GTPγS, N362S) | EC50 ([3]; [35S]GTPγS, S169A) | fold reduced potency compared to wild type ([3]; [35S]GTPγS) | EC50 ([4]; [35S]GTPγS, T167A) | fold reduction in potency compared to wild type ([4]; [35S]GTPγS) | fold reduced potency compared to wild type ([5]; [35S]GTPγS) | EC50 ([5]; [35S]GTPγS, W360A) | EC50 (GPR84 Y332A; [35S]GTPγS, Y332A) | EC50 ([6]; [35S]GTPγS, Y69A) | fold reduced potency compared to wild type ([7]; [35S]GTPγS) | EC50 ([7]; [35S]GTPγS, Y81A) | EC50 (GPR84 F187A) | EC50 (GPR84 L336A) | EC50 (GPR84 S331A) | Emax (GPR84 S331A) | EC50 (GPR84-WT; [10]) | Emax (GPR84-WT; [11]) | further results
Cc1cc(CCCc2cc(O)c[n+]([O-])c2)ccc1Cl [OX04954] | 0.0427 nM | ~10 fold | 11.7 nM | 24 nM | 380 nM | more than 1000 fold | 15.1 nM | ~10 fold | ~10 fold | 13.5 nM | 0.427 nM | 5.13 nM | ~10 fold | 16.2 nM | 5.75 nM | 2.14 nM | 30.9 nM | 66 ± 7% | 39.8 nM | 71 ± 4% | Emax ([2]; [35S]GTPγS, N104A): 130 ± 20%; Emax (GPR84 N362S; [35S]GTPγS, N362S): 124 ± 19%; Emax ([3]; [35S]GTPγS, S169A): 47 ± 11%; Emax ([4]; [35S]GTPγS, T167A): 129 ± 15%; Emax ([5]; [35S]GTPγS, W360A): 75 ± 8%; Emax (GPR84 Y332A; [35S]GTPγS, Y332A): 60 ± 11%; Emax ([6]; [35S]GTPγS, Y69A): 106 ± 4%; Emax ([7]; [35S]GTPγS, Y81A): 133 ± 18%; EC50 ([8]; [35S]GTPγS, GPR84-WT, Extended Data Table 3, read-out: pEC50 ± SEM (converted)): 0.661 nM; Emax ([8]; [35S]GTPγS, GPR84-WT, Extended Data Tables 1 and 5): 129 ± 12%; EC50 ([8]; [35S]GTPγS, GPR84-WT, Extended Data Tables 1 and 5, read-out: pEC50 ± SEM (converted)): 0.661 nM; EC50 (GPR84-WT; β-arrestin-1 recruitment, Extended Data Table 6, read-out: pEC50 ± SEM (converted)): 31.6 nM
[O-][n+]1cc(O)cc(CCc2ccc(Cl)c(C(F)(F)F)c2)c1 [OX04529] | 0.0692 nM | 5 fold | 3.98 nM | 16.6 nM | 417 nM | ~300 fold | 17.8 nM | greater than 10 fold | ~10 fold | 8.71 nM | 0.347 nM | 4.57 nM | ~10 fold | 21.4 nM | 3.8 nM | 1.86 nM | 28.8 nM | 24 ± 6% | 49 nM | 18 ± 4% | fold greater potency than at wild type ([1]; Leu336Ala): more than 10 fold; EC50 ([1]; Leu336Ala, read-out: EC50): ~0.1 nM; Emax [2]: 68 ± 8%; Emax (GPR84 N362S): 126 ± 30%; Emax [3]: 30 ± 2%; Emax [4]: 82 ± 10%; Emax [5]: 75 ± 10%; Emax (GPR84 Y332A): 50 ± 12%; Emax [6]: 94 ± 9%; Emax [7]: 85 ± 4%; EC50 ([8]; pEC50 ± SEM, [35S]GTPγS, GPR84-WT, Extended Data Table 3): 1.26 nM; EC50 ([8]; pEC50 ± SEM, [35S]GTPγS, GPR84-WT, Extended Data Tables 1 and 5): 1.17 nM; Emax [8]: 119 ± 13%; efficacy in promoting interaction with β-arrestin-1 (GPR84 F187A; Phe187Ala GPR84, HEK293T): substantial efficacy; efficacy in promoting interaction with β-arrestin-1 (GPR84 L336A; Leu336Ala GPR84, HEK293T): full agonist; pEC50 ± SEM (GPR84-WT; [11]): 7.10 ± 10.11
